The target in the assay is T1, BRAF V599E (Homo sapiens, UniProt P15056, V600E).
T1 construct: purchased Thermo Fisher Scientific (Life Technologies) SelectScreen
As to the kind of experiment: SelectScreen Z'LYTE. The assay is classed as biochemical. To be noted: ATP 100 µM. The method in brief:
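Percent values come from Thermo SelectScreen profiling of NU5455, combining activity and binding assays. CSF1R was run in Z'LYTE format at Km app ATP, and CAMK1 in Adapta format with ATP listed at 10.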

Drawing on article PMC6934184, “Selective DNA-PKcs inhibition extends the therapeutic index of localized radiotherapy and chemotherapy” (The Journal of Clinical Investigation, 2019), this text covers inhibition for one compound.

Each structure is given as a SMILES string.

T1 sequence (P15056 417-766 V600E limits assumed): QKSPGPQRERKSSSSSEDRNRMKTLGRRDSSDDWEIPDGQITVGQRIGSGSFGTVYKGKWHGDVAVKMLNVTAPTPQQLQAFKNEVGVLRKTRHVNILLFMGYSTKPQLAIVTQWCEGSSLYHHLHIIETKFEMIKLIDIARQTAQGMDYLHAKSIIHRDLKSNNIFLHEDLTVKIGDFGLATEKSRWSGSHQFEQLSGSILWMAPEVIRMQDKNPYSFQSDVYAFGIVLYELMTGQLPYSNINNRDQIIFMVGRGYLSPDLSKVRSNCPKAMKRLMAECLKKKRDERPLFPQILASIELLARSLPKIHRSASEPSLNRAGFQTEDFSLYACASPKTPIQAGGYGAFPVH

Compound `CN(C(=O)CN1CCOCC1)c1ccc2sc3c(-c4cccc5c(=O)cc(N6CC7CCC(C6)O7)oc45)cccc3c2c1` [NU5455] gave an inhibition at 1 µM of 18.3%.

For orientation: inhibition means the change of the read-out against control, counted positive when it falls.
